# Experimental data from patent US20220073536A1 (Rigel Pharmaceuticals, Inc., priority 2003, published 2022).
# Where two headings read alike, the source gives them in different places.
# Test system: cultured human mast cells (CHMC)
# Test: CHMC low cell density IgE activation: tryptase assay
# Type: cell-based
# Details: low cell density, IgE activation
# Method in brief: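 Fluorogenic readout of tryptase released into the supernatant (30 min substrate incubation, room temperature) measures degranulation. Cells were plated at low density (1000–1500/well, varied by donor) and triggered with anti-IgE for 30 min at 37 °C.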
# [1] = Homo sapiens, Mast cell, 3 pt, read-out: LD Tryptase, CHMC, IgE, 3 pt
# [2] = Homo sapiens, Mast cell, 8 pt, read-out: LD Tryptase, CHMC, IgE, 8 pt
# [3] = 3 pt, read-out: LD Tryptase, CHMC, IgE, 3 pt
# [4] = 8 pt, read-out: LD Tryptase, CHMC, IgE, 8 pt
IC50 [1],IC50 [2],SMILES,further results
< 10 µM,,COc1ccc(Nc2nc(Nc3ccc4c(c3)nc(C)n4CCO)ncc2F)cc1Cl [Compound 900],
< 10 µM,< 10 µM,Cc1nc2cc(Nc3ncc(F)c(Nc4ccc5c(c4)NC(=O)C(C)(C)O5)n3)ccc2n1CCO [Compound 901],
,< 10 µM,Cc1nc2cc(Nc3ncc(F)c(Nc4ccc5c(c4)NC(=O)[C@H](C)O5)n3)ccc2n1CCO [Compound 902],
,< 10 µM,"Cc1nc2cc(Nc3ncc(F)c(Nc4ccc5c(n4)NC(=O)C(C)(C)O5)n3)ccc2n1CCO [Compound 903, N4-(2,2-Dimethyl-3-oxo-4H-5-pyrid[1,4]oxazin-6-yl)-5-fluoro-N2-[1-(2-hydroxyethyl)-2-methylbenzimidazol-5-yl)-2,4-pyrimidinediamine]",
> 10 µM,> 10 µM,Cn1c(=O)[nH]c2cc(Nc3ncc(F)c(Nc4ccc(Cl)c(Cl)c4)n3)ccc21 [Compound 904],
< 10 µM,< 10 µM,COc1ccc(Nc2nc(Nc3ccc4c(c3)[nH]c(=O)n4C)ncc2F)cc1Cl [Compound 905],
< 10 µM,< 10 µM,Cn1c(=O)[nH]c2cc(Nc3ncc(F)c(Nc4ccc5c(c4)NC(=O)C(C)(C)O5)n3)ccc21 [Compound 906],
< 10 µM,< 10 µM,C[C@@H]1Oc2ccc(Nc3nc(Nc4ccc5c(c4)[nH]c(=O)n5C)ncc3F)cc2NC1=O [Compound 907],
,,"Cn1c(=O)[nH]c2cc(Nc3ncc(F)c(Nc4ccc5c(n4)NC(=O)C(C)(C)O5)n3)ccc21 [Compound 908, N4-(2,2-Dimethyl-3-oxo-4H-5-pyrid[1,4]oxazin-6-yl)-N2-(2,3-dihydro-1-methyl-2-oxo-benzimidazol-5-yl)-5-fluoro-2,4-pyrimidinediamine]",IC50 [3]: < 10 µM; IC50 [4]: < 10 µM
< 10 µM,,Cc1nc2ccc(Nc3ncc(F)c(Nc4ccc5c(c4)NC(=O)C(C)S5(=O)=O)n3)cc2[nH]1 (stereo not shown) [Compound 909],
< 10 µM,,"CC1C(=O)Nc2cc(Nc3nc(Nc4ccc5[nH]c(C(F)(F)F)nc5c4)ncc3F)ccc2S1(=O)=O (stereo not shown) [Compound 910, 5-Fluoro-N4-(2-methyl-1,1,3-trioxo-2H,4H-benzo[1,4]thiazin-6-yl)-N2-(2-trifluoromethyl-1H-benzimidazol-5-yl)-2,4-pyrimidinediamine]",
,< 10 µM,Cn1c(C(F)(F)F)nc2cc(Nc3ncc(F)c(Nc4ccc(Cl)c(Cl)c4)n3)ccc21 [Compound 911],
,< 10 µM,COc1ccc(Nc2nc(Nc3ccc4c(c3)nc(C(F)(F)F)n4C)ncc2F)cc1Cl [Compound 912],
,,Cn1c(C(F)(F)F)nc2cc(Nc3ncc(F)c(Nc4ccc5c(c4)NC(=O)C(C)(C)O5)n3)ccc21 [Compound 913],IC50 [4]: < 10 µM
,< 10 µM,C[C@@H]1Oc2ccc(Nc3nc(Nc4ccc5c(c4)nc(C(F)(F)F)n5C)ncc3F)cc2NC1=O [Compound 914],
,,OCCn1c(C(F)(F)F)nc2cc(Nc3ncc(F)c(Nc4ccc(Cl)c(Cl)c4)n3)ccc21 [Compound 916],IC50 [4]: < 10 µM
,< 10 µM,COc1ccc(Nc2nc(N)nc(-c3ccc4c(c3)nc(C(F)(F)F)n4CCO)c2F)cc1Cl [Compound 917],
< 10 µM,< 10 µM,CC1(C)Oc2ccc(Nc3nc(N)nc(-c4ccc5c(c4)nc(C(F)(F)F)n5CCO)c3F)cc2NC1=O [Compound 918],
< 10 µM,< 10 µM,C[C@@H]1Oc2ccc(Nc3nc(N)nc(-c4ccc5c(c4)nc(C(F)(F)F)n5CCO)c3F)cc2NC1=O [Compound 919],
< 10 µM,,COc1ccc(Nc2nc(Nc3ccc4oncc4c3)ncc2F)cc1Cl [Compound 925],

IC50 [1],IC50 [2],SMILES,further results
,< 10 µM,CC1(C)Oc2ccc(Nc3nc(Nc4ccc5oncc5c4)ncc3F)cc2NC1=O [Compound 926],
,< 10 µM,C[C@@H]1Oc2ccc(Nc3nc(Nc4ccc5oncc5c4)ncc3F)cc2NC1=O [Compound 927],
,,"CC1(C)Oc2ccc(Nc3nc(Nc4ccc5oncc5c4)ncc3F)nc2NC1=O [Compound 928, N2-(1,2-Benzisoxazol-5-yl)-N4-(2,2-dimethyl-3-oxo-4H-5-pyrido[1,4]oxazin-6-yl)-5-fluoro-2,4-pyrimidinediamine]",IC50 [4]: < 10 µM
< 10 µM,,CC1(C)C(=O)Nc2cc(Nc3nc(Nc4ccc5oncc5c4)ncc3F)ccc2S1(=O)=O [Compound 930],
> 10 µM,,CCn1c(C)nc2cc(Nc3ncc(F)c(Nc4ccc(Cl)c(Cl)c4)n3)ccc21 [Compound 932],
< 10 µM,,CCn1c(C)nc2cc(Nc3ncc(F)c(Nc4ccc(OC)c(Cl)c4)n3)ccc21 [Compound 933],
< 10 µM,,CCn1c(C)nc2cc(Nc3ncc(F)c(Nc4ccc5c(c4)NC(=O)C(C)(C)O5)n3)ccc21 [Compound 934],
< 10 µM,< 10 µM,CCn1c(C)nc2cc(Nc3ncc(F)c(Nc4ccc5c(c4)NC(=O)[C@H](C)O5)n3)ccc21 [Compound 935],
,,"CCn1c(C)nc2cc(Nc3ncc(F)c(Nc4ccc5c(n4)NC(=O)C(C)(C)O5)n3)ccc21 [Compound 936, N4-(2,2-Dimethyl-3-oxo-4H-5-pyrido[1,4]oxazin-6-yl)-N2-(1-ethyl-2-methylbenzimidazol-5-yl)-5-fluoro-2,4-pyrimidinediamine]",IC50 [3]: < 10 µM
< 10 µM,< 10 µM,OCCCn1c(C(F)(F)F)nc2cc(Nc3ncc(F)c(Nc4ccc(Cl)c(Cl)c4)n3)ccc21 [Compound 937],
< 10 µM,,COc1ccc(Nc2nc(Nc3ccc4c(c3)nc(C(F)(F)F)n4CCCO)ncc2F)cc1Cl [Compound 938],
< 10 µM,< 10 µM,CC1(C)Oc2ccc(Nc3nc(Nc4ccc5c(c4)nc(C(F)(F)F)n5CCCO)ncc3F)cc2NC1=O [Compound 939],
< 10 µM,< 10 µM,C[C@@H]1Oc2ccc(Nc3nc(Nc4ccc5c(c4)nc(C(F)(F)F)n5CCCO)ncc3F)cc2NC1=O [Compound 940],
,,"CC1(C)Oc2ccc(Nc3nc(Nc4ccc5c(c4)nc(C(F)(F)F)n5CCCO)ncc3F)nc2NC1=O [Compound 941, N4-(2,2-Dimethyl-3-oxo-4H-5-pyrido[1,4]oxazin-6-yl)-5-fluoro-N2-[1-(3-hydroxypropyl)-2-trifluoromethylbenzimidazol-5-yl]-2,4-pyrimidinediamine]",IC50 [3]: < 10 µM; IC50 [4]: < 10 µM
,,"C[C@@H]1Oc2ccc(Nc3nc(Nc4ccc5c(c4)nc(N4CCOCC4)n5C)ncc3F)cc2NC1=O [Compound 945, (S)-5-Fluoro-N2-[1-methyl-2-(4-morpholino)benzimidazol-5-yl]-N4-(2-methyl-3-oxo-2H,4H-benz[1,4]oxazin-6-yl)-2,4-pyrimidinediamine]",IC50 [3]: < 10 µM; IC50 [4]: < 10 µM
,,"Cn1c(N2CCOCC2)nc2cc(Nc3ncc(F)c(Nc4ccc5c(n4)NC(=O)C(C)(C)O5)n3)ccc21 [Compound 946, N4-(2,2-Dimethyl-3-oxo-4H-5-pyrido[1,4]oxazin-6-yl)-5-fluoro-N2-[1-methyl-2-(4-morpholino)benzimidazol-5-yl]-2,4-pyrimidinediamine]",IC50 [3]: < 10 µM; IC50 [4]: < 10 µM
,< 10 µM,Cc1nc2cc(Nc3ncc(F)c(Nc4ccc(Cl)c(Cl)c4)n3)ccc2n1CCCO [Compound 947],
,< 10 µM,COc1ccc(Nc2nc(Nc3ccc4c(c3)nc(C)n4CCCO)ncc2F)cc1Cl [Compound 948],
,< 10 µM,Cc1nc2cc(Nc3ncc(F)c(Nc4ccc5c(c4)NC(=O)C(C)(C)O5)n3)ccc2n1CCCO [Compound 949],
,< 10 µM,Cc1nc2cc(Nc3ncc(F)c(Nc4ccc5c(c4)NC(=O)[C@H](C)O5)n3)ccc2n1CCCO [Compound 950],
